Measured values reported in US20130137767A1, “Methods and Compositions for Treating Arthritis with Docosahexaenoic Acid” (DSM IP ASSETS B.V., priority 2010, published 2013).

Test system: Collagen-Induced Arthritis (CIA)
Experiment: CIA-EE (Example 1): paw, knee and six-joint histopathology
Type: in vivo, Male DBA/1O1aHsd mice
Conditions: day 45, vs OA-EE placebo, FIG. 4
Source text: Male DBA/1O1aHsd mice (3.5-4 weeks of age) were randomized by weight and enrolled in the study after a three day quarantine in which animals were fed the AlN-93G diet with a modified base fat: 1 part flax seed oil (flax), 9 parts hydrogenated coconut oil (HCOC) and 21 parts high-oleic safflower oil (HO-SAFF). 15 animals were enrolled per study group, with the exception of the No Disease control that had 4 animals. Study groups consisted of:
The appropriate ethyl esters were blended into the base diet to provide approximately 2500 and 5000 mg/kg polyunsaturated fatty acid (PUFA) per day. The human equivalent doses (HED) were approximately 12 g/day and 22 g/day, respectively. The 2500 mg/kg EE diets contained the following fat blend: 1 part flax, 12 parts HCOC and 23 parts HO-SAFF. The 5000 mg/kg EE diets contained a fat blend consisting of: 1 part flax, 5 parts HCOC and 20 parts HO-SAFF. All study diets provided a total of 7% fat. Animals were fed study diets for approximately 30 days prior to the first collagen injection at day 0 and remained on the diets until study termination (day 45). Animals in the No Disease control and Dexamethasone groups were fed the diet containing OA-EE. Following a second collagen injection on day 21, arthritis severity was scored daily. Blood samples were collected at day 21 and day 45. Joints, 6 per an animal, were collected for histology and pathology on day 45.
Placebo-treated diseased animals had histopathology changes, consistent with those seen in type II collagen induced arthritis, in most joints, with scores ranging from normal to severe. Microscopic alteration included infiltration of synovium and periarticular tissue with neutrophils and mononuclear inflammatory cells (inflammation), marginal zone pannus and bone resorption and cartilage damage (proteoglycan loss, chondrocyte death and collagen matrix destruction). Four-paw, knee and joint parameters were assigned a quantitative score 0=normal, 1=minimal, 2=mild, 3=moderate, 4=marked, 5=severe and a total score was determined per animal.

SMILES: CC/C=C\C/C=C\C/C=C\C/C=C\C/C=C\C/C=C\CCC(=O)OCC [DHA-EE]
- knee histopathology parameters (2500 mg/kg): significantly reduced
- paw histopathology parameters (inflammation, pannus, cartilage damage, bone damage) (2500 mg/kg): significantly reduced
- six-joint mean histopathology parameters (2500 mg/kg): significantly reduced
- paw histopathology parameters (inflammation, pannus, cartilage damage, bone damage) (5000 mg/kg): reduced paw histopathology scores
- six-joint mean histopathology parameters (5000 mg/kg): significantly reduced
